Measured values as given in the kinase profiling compilation of Christmann-Franck et al. (2016).
Each block holds one molecule with its values, some of them ahead of it.

Assays:
Assay in all cases: radiometric filter-binding kinase assay
[1] = tested on: AKT2 (human), P31751 [S474D]
AURKB (human) = AURKB (human) (UniProt Q96GD4)
CAMKK2 (human) = CAMKK2 (human) (UniProt Q96RR4)
CDK2 CCNA2 (human) = CDK2 CCNA2 (human) (UniProt P20248+P24941)
CHEK1 (human) = CHEK1 (human) (UniProt O14757)
CSNK2A1 (human) = CSNK2A1 (human) (UniProt P68400)
CaMK1 (human) = CaMK1 (human) (UniProt Q14012)
DYRK1A (human) = DYRK1A (human) (UniProt Q13627)
EPHB3 (human) = EPHB3 (human) (UniProt P54753)
IGF1R (human) = IGF1R (human) (UniProt P08069)
INSR (human) = INSR (human) (UniProt P06213)
INSRR (human) = INSRR (human) (UniProt P14616)
JAK2 JH1 JH2 (human) = JAK2 JH1 JH2 (human) (UniProt O60674)
LCK (mouse) = conditions: accession and sequence are those of the human protein
MAP2K1 (human) = MAP2K1 (human) (UniProt Q02750)
MAP3K11 (human) = MAP3K11 (human) (UniProt Q16584)
MAP3K9 (human) = MAP3K9 (human) (UniProt P80192)
MAPK10 (human) = MAPK10 (human) (UniProt P53779)
MAPK13 (human) = MAPK13 (human) (UniProt O15264)
MARK3 (human) = MARK3 (human) (UniProt P27448)
MARK4 (human) = MARK4 (human) (UniProt Q96L34)
MINK1 (human) = MINK1 (human) (UniProt Q8N4C8)
MKNK1 (human) = MKNK1 (human) (UniProt Q9BUB5)
MST4 (human) = MST4 (human) (UniProt Q9P289)
NTRK1 (human) = NTRK1 (human) (UniProt P04629)
NUAK1 (human) = NUAK1 (human) (UniProt O60285)
PAK4 (human) = PAK4 (human) (UniProt O96013)
PHKG1 (human) = PHKG1 (human) (UniProt Q16816)
PIM2 (human) = PIM2 (human) (UniProt Q9P1W9)
PRKAA1 or PRKAA2 (rat) = conditions: accession and sequence are those of the human protein
PRKACA (human) = PRKACA (human) (UniProt P17612)
PRKCZ (human) = PRKCZ (human) (UniProt Q05513)
RIPK2 (human) = RIPK2 (human) (UniProt O43353)
SRC (human) = SRC (human) (UniProt P12931)
SYK (human) = SYK (human) (UniProt P43405)
YES1 (human) = YES1 (human) (UniProt P07947)

Chain of MAPK10 (human) (P53779 whole entry, looked up): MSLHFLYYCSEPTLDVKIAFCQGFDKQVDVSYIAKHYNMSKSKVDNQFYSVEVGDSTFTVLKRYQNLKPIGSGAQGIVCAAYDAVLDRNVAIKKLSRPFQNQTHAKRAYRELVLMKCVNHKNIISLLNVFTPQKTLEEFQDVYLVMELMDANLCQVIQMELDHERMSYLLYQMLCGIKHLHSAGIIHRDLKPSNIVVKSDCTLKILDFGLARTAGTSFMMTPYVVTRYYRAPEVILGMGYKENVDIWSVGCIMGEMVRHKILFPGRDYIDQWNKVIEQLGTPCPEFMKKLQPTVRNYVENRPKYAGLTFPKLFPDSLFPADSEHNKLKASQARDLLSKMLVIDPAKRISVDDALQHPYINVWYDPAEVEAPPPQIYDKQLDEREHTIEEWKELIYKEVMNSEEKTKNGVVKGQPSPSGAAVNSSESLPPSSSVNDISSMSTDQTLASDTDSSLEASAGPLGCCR
Chain of AURKB (human) (Q96GD4 whole entry, looked up): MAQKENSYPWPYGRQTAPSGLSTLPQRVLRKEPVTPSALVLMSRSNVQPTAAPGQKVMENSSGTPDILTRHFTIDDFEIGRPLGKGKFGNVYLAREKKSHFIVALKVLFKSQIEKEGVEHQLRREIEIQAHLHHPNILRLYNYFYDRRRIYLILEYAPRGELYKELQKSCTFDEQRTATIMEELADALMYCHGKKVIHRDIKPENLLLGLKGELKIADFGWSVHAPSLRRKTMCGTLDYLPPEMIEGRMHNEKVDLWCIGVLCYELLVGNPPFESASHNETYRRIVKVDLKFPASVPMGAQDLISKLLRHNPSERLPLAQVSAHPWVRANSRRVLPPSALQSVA
Chain of MARK3 (human) (P27448 whole entry, looked up): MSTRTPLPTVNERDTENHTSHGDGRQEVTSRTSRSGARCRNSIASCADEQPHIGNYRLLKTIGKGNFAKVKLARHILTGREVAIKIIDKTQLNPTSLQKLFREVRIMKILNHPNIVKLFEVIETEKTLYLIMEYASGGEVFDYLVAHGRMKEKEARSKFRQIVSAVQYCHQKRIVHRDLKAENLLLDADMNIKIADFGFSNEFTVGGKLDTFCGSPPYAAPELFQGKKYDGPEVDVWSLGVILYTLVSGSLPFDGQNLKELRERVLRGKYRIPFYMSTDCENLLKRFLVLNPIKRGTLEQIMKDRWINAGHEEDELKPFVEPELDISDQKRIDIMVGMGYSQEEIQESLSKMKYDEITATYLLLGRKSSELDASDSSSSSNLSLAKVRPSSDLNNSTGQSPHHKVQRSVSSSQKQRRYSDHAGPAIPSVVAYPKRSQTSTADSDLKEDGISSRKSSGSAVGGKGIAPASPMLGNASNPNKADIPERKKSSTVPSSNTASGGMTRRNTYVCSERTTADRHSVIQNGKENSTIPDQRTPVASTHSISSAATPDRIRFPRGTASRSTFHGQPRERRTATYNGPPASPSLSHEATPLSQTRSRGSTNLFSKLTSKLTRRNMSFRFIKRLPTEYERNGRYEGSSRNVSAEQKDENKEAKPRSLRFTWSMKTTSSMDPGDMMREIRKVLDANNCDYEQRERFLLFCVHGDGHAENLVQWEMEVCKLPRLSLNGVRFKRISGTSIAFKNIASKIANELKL
Chain of CaMK1 (human) (Q14012 whole entry, looked up): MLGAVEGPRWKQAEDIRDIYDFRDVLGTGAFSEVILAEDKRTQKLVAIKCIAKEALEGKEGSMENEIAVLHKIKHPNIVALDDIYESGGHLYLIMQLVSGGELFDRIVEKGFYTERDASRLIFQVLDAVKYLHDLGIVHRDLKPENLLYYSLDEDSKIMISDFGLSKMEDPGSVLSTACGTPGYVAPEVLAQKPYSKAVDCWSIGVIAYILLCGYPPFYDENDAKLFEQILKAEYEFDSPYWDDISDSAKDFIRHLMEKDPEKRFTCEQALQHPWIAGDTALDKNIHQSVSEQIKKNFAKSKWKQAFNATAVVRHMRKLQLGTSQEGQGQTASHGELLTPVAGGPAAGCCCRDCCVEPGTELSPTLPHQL
Chain of PAK4 (human) (O96013 whole entry, looked up): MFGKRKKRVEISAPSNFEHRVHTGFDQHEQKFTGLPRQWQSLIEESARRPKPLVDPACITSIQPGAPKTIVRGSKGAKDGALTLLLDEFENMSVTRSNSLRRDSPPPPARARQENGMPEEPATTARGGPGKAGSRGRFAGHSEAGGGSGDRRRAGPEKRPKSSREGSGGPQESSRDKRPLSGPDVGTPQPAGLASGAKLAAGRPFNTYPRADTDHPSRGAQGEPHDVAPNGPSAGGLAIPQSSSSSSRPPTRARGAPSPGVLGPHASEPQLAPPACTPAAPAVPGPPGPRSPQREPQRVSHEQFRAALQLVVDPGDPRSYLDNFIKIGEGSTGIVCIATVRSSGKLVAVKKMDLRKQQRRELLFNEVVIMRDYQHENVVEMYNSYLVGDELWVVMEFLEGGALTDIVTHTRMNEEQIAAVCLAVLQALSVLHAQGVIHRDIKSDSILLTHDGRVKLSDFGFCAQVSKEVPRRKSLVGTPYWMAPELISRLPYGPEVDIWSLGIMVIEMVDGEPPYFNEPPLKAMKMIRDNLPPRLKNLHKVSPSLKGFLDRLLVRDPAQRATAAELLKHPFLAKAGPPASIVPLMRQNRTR
Chain of MAP3K11 (human) (Q16584 whole entry, looked up): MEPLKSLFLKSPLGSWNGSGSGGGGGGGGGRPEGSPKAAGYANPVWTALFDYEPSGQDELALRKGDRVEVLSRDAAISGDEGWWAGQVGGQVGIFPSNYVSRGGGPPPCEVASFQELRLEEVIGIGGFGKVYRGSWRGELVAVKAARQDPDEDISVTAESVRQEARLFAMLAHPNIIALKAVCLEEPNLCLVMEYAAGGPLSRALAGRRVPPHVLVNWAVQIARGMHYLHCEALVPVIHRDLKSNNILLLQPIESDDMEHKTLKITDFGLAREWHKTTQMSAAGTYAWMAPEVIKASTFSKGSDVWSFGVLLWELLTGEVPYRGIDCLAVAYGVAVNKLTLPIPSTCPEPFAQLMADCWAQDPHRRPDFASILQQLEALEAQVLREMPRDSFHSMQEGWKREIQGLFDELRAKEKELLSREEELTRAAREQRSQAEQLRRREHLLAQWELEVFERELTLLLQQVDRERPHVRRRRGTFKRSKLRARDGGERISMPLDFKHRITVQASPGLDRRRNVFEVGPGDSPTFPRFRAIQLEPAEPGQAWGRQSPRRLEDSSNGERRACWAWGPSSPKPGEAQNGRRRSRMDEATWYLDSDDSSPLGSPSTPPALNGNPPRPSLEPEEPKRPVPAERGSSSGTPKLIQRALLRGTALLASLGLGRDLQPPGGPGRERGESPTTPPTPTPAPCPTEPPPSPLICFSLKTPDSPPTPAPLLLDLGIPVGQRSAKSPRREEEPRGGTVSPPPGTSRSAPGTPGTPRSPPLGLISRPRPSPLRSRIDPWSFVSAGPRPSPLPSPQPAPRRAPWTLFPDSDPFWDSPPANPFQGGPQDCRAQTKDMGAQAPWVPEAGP
Chain of IGF1R (human) (P08069 whole entry, looked up): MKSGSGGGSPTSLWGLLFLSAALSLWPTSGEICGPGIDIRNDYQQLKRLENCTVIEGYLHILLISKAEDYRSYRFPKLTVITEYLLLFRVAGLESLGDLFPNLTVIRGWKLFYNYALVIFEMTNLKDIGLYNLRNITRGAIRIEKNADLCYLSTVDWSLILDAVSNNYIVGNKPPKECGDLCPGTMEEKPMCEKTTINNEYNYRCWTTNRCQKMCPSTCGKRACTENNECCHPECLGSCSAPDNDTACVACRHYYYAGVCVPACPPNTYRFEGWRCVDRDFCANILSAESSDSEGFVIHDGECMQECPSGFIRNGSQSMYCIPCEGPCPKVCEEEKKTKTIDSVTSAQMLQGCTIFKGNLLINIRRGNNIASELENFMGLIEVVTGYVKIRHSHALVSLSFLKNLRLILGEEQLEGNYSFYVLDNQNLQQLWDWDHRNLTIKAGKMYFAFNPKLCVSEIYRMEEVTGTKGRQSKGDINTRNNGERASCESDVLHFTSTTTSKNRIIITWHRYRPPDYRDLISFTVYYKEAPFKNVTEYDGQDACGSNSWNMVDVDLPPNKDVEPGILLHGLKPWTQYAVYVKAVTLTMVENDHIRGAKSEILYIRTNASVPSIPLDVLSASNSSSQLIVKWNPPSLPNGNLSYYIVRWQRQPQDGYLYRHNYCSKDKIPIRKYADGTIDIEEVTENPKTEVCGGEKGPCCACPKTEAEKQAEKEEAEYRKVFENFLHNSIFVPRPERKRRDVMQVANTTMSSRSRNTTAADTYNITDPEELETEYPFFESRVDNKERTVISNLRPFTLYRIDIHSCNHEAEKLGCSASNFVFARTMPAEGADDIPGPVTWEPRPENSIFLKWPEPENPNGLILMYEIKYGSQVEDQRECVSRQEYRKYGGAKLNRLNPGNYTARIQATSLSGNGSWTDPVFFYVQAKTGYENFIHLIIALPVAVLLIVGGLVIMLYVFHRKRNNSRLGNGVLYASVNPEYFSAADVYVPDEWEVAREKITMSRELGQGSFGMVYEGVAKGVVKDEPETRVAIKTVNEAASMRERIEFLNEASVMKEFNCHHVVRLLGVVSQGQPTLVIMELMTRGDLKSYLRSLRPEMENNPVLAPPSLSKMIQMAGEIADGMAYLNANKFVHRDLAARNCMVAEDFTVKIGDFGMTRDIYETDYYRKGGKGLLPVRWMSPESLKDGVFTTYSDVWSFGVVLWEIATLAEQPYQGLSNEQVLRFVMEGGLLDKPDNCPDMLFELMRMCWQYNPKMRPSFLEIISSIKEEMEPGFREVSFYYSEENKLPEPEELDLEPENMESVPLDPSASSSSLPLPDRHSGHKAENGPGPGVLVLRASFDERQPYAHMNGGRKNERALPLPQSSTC
Chain of PIM2 (human) (Q9P1W9 whole entry, looked up): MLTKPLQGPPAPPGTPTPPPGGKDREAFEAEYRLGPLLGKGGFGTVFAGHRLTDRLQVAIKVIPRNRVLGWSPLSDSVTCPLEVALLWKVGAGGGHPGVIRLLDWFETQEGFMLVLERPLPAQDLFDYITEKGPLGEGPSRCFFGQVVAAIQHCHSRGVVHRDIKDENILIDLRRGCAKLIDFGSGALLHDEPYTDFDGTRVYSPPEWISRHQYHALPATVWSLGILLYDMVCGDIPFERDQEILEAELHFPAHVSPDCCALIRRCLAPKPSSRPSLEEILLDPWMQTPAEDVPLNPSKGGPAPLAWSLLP

residual activity ([1]; compound 1.0 µM): 85% | residual activity ([1]; compound 10.0 µM): 94% | residual activity (AURKB (human); compound 1.0 µM): 83% | residual activity (AURKB (human); compound 10.0 µM): 105% | residual activity (CAMKK2 (human); compound 1.0 µM): 92% | residual activity (CAMKK2 (human); compound 10.0 µM): 84% | residual activity (CDK2 CCNA2 (human); compound 1.0 µM): 96% | residual activity (CDK2 CCNA2 (human); compound 10.0 µM): 87% | residual activity (CHEK1 (human); compound 1.0 µM): 94% | residual activity (CHEK1 (human); compound 10.0 µM): 82% | residual activity (CSNK2A1 (human); compound 1.0 µM): 106% | residual activity (CSNK2A1 (human); compound 10.0 µM): 93% | residual activity (CaMK1 (human); compound 1.0 µM): 103% | residual activity (CaMK1 (human); compound 10.0 µM): 91% | residual activity (DYRK1A (human); compound 1.0 µM): 107% | residual activity (DYRK1A (human); compound 10.0 µM): 99% | residual activity (EPHB3 (human); compound 10.0 µM): 102% | residual activity (IGF1R (human); compound 1.0 µM): 106% | residual activity (IGF1R (human); compound 10.0 µM): 106% | residual activity (INSR (human); compound 10.0 µM): 107% | residual activity (INSRR (human); compound 1.0 µM): 102% | residual activity (INSRR (human); compound 10.0 µM): 109% | residual activity (JAK2 JH1 JH2 (human); compound 1.0 µM): 103% | residual activity (JAK2 JH1 JH2 (human); compound 10.0 µM): 93% | residual activity (LCK (mouse); compound 1.0 µM): 100% | residual activity (LCK (mouse); compound 10.0 µM): 99% | residual activity (MAP2K1 (human); compound 1.0 µM): 90% | residual activity (MAP2K1 (human); compound 10.0 µM): 92% | residual activity (MAP3K11 (human); compound 1.0 µM): 92% | residual activity (MAP3K11 (human); compound 10.0 µM): 98% | residual activity (MAP3K9 (human); compound 1.0 µM): 99% | residual activity (MAP3K9 (human); compound 10.0 µM): 99% | residual activity (MAPK10 (human); compound 1.0 µM): 90% | residual activity (MAPK10 (human); compound 10.0 µM): 95% | residual activity (MAPK13 (human); compound 1.0 µM): 109% | residual activity (MAPK13 (human); compound 10.0 µM): 123% | residual activity (MARK3 (human); compound 1.0 µM): 91% | residual activity (MARK3 (human); compound 10.0 µM): 94% | residual activity (MARK4 (human); compound 10.0 µM): 90% | residual activity (MINK1 (human); compound 1.0 µM): 111% | residual activity (MINK1 (human); compound 10.0 µM): 118% | residual activity (MKNK1 (human); compound 1.0 µM): 116% | residual activity (MKNK1 (human); compound 10.0 µM): 111% | residual activity (MST4 (human); compound 1.0 µM): 106% | residual activity (MST4 (human); compound 10.0 µM): 112% | residual activity (NTRK1 (human); compound 10.0 µM): 141% | residual activity (NUAK1 (human); compound 1.0 µM): 99% | residual activity (PAK4 (human); compound 1.0 µM): 102% | residual activity (PAK4 (human); compound 10.0 µM): 107% | residual activity (PHKG1 (human); compound 1.0 µM): 101% | residual activity (PHKG1 (human); compound 10.0 µM): 103% | residual activity (PIM2 (human); compound 1.0 µM): 98% | residual activity (PRKAA1 or PRKAA2 (rat); compound 1.0 µM): 98% | residual activity (PRKAA1 or PRKAA2 (rat); compound 10.0 µM): 92% | residual activity (PRKACA (human); compound 1.0 µM): 101% | residual activity (PRKACA (human); compound 10.0 µM): 84% | residual activity (PRKCZ (human); compound 1.0 µM): 100% | residual activity (PRKCZ (human); compound 10.0 µM): 108% | residual activity (RIPK2 (human); compound 1.0 µM): 97% | residual activity (RIPK2 (human); compound 10.0 µM): 106% | residual activity (SRC (human); compound 1.0 µM): 105% | residual activity (SRC (human); compound 10.0 µM): 114% | residual activity (SYK (human); compound 10.0 µM): 114% | residual activity (YES1 (human); compound 1.0 µM): 102% | residual activity (YES1 (human); compound 10.0 µM): 102%
Compound: Nc1cccc2c1CN(C1CCC(=O)NC1=O)C2=O (stereo not given)

residual activity ([1]; compound 0.1 µM): 86% | residual activity ([1]; compound 1.0 µM): 98% | residual activity ([1]; compound 10.0 µM): 74% | residual activity (AURKB (human); compound 0.1 µM): 85% | residual activity (AURKB (human); compound 1.0 µM): 32% | residual activity (AURKB (human); compound 10.0 µM): 6% | residual activity (CAMKK2 (human); compound 0.1 µM): 11% | residual activity (CAMKK2 (human); compound 1.0 µM): 2% | residual activity (CAMKK2 (human); compound 10.0 µM): 2% | residual activity (CDK2 CCNA2 (human); compound 0.1 µM): 106% | residual activity (CDK2 CCNA2 (human); compound 1.0 µM): 1% | residual activity (CDK2 CCNA2 (human); compound 10.0 µM): 0% | residual activity (CHEK1 (human); compound 0.1 µM): 112% | residual activity (CHEK1 (human); compound 1.0 µM): 108% | residual activity (CHEK1 (human); compound 10.0 µM): 79% | residual activity (CSNK2A1 (human); compound 0.1 µM): 96% | residual activity (CSNK2A1 (human); compound 10.0 µM): 46% | residual activity (CaMK1 (human); compound 0.1 µM): 104% | residual activity (CaMK1 (human); compound 1.0 µM): 99% | residual activity (CaMK1 (human); compound 10.0 µM): 80% | residual activity (DYRK1A (human); compound 0.1 µM): 79% | residual activity (DYRK1A (human); compound 1.0 µM): 47% | residual activity (DYRK1A (human); compound 10.0 µM): 8% | residual activity (EPHB3 (human); compound 0.1 µM): 108% | residual activity (EPHB3 (human); compound 10.0 µM): 101% | residual activity (IGF1R (human); compound 0.1 µM): 100% | residual activity (IGF1R (human); compound 1.0 µM): 103% | residual activity (IGF1R (human); compound 10.0 µM): 18% | residual activity (INSR (human); compound 0.1 µM): 111% | residual activity (INSR (human); compound 1.0 µM): 100% | residual activity (INSR (human); compound 10.0 µM): 68% | residual activity (INSRR (human); compound 0.1 µM): 98% | residual activity (INSRR (human); compound 1.0 µM): 58% | residual activity (INSRR (human); compound 10.0 µM): 26% | residual activity (JAK2 JH1 JH2 (human); compound 0.1 µM): 24% | residual activity (LCK (mouse); compound 0.1 µM): 109% | residual activity (LCK (mouse); compound 1.0 µM): 79% | residual activity (MAP2K1 (human); compound 0.1 µM): 105% | residual activity (MAP2K1 (human); compound 1.0 µM): 34% | residual activity (MAP2K1 (human); compound 10.0 µM): 12% | residual activity (MAP3K11 (human); compound 0.1 µM): 75% | residual activity (MAP3K11 (human); compound 1.0 µM): 33% | residual activity (MAP3K11 (human); compound 10.0 µM): 5% | residual activity (MAP3K9 (human); compound 0.1 µM): 87% | residual activity (MAP3K9 (human); compound 1.0 µM): 38% | residual activity (MAP3K9 (human); compound 10.0 µM): 7% | residual activity (MAPK10 (human); compound 0.1 µM): 73% | residual activity (MAPK13 (human); compound 0.1 µM): 118% | residual activity (MAPK13 (human); compound 1.0 µM): 87% | residual activity (MAPK13 (human); compound 10.0 µM): 62% | residual activity (MARK3 (human); compound 0.1 µM): 89% | residual activity (MARK3 (human); compound 1.0 µM): 60% | residual activity (MARK3 (human); compound 10.0 µM): 29% | residual activity (MARK4 (human); compound 0.1 µM): 110% | residual activity (MINK1 (human); compound 0.1 µM): 68% | residual activity (MINK1 (human); compound 1.0 µM): 19% | residual activity (MINK1 (human); compound 10.0 µM): 2% | residual activity (MKNK1 (human); compound 0.1 µM): 28% | residual activity (MKNK1 (human); compound 1.0 µM): 3% | residual activity (MKNK1 (human); compound 10.0 µM): 3% | residual activity (MST4 (human); compound 0.1 µM): 81% | residual activity (MST4 (human); compound 1.0 µM): 68% | residual activity (MST4 (human); compound 10.0 µM): 13% | residual activity (NTRK1 (human); compound 0.1 µM): 29% | residual activity (NUAK1 (human); compound 0.1 µM): 45% | residual activity (NUAK1 (human); compound 1.0 µM): 15% | residual activity (NUAK1 (human); compound 10.0 µM): 10% | residual activity (PAK4 (human); compound 0.1 µM): 96% | residual activity (PAK4 (human); compound 1.0 µM): 85% | residual activity (PAK4 (human); compound 10.0 µM): 39% | residual activity (PHKG1 (human); compound 0.1 µM): 34% | residual activity (PHKG1 (human); compound 1.0 µM): 3% | residual activity (PHKG1 (human); compound 10.0 µM): 0% | residual activity (PIM2 (human); compound 0.1 µM): 104% | residual activity (PIM2 (human); compound 1.0 µM): 92% | residual activity (PIM2 (human); compound 10.0 µM): 75% | residual activity (PRKAA1 or PRKAA2 (rat); compound 0.1 µM): 49% | residual activity (PRKAA1 or PRKAA2 (rat); compound 1.0 µM): 2% | residual activity (PRKAA1 or PRKAA2 (rat); compound 10.0 µM): 1% | residual activity (PRKACA (human); compound 0.1 µM): 91% | residual activity (PRKACA (human); compound 1.0 µM): 104% | residual activity (PRKACA (human); compound 10.0 µM): 97% | residual activity (PRKCZ (human); compound 0.1 µM): 96% | residual activity (PRKCZ (human); compound 1.0 µM): 105% | residual activity (PRKCZ (human); compound 10.0 µM): 87% | residual activity (RIPK2 (human); compound 0.1 µM): 55% | residual activity (SRC (human); compound 0.1 µM): 93% | residual activity (SRC (human); compound 1.0 µM): 102% | residual activity (SRC (human); compound 10.0 µM): 44% | residual activity (SYK (human); compound 0.1 µM): 99% | residual activity (SYK (human); compound 1.0 µM): 66% | residual activity (SYK (human); compound 10.0 µM): 12% | residual activity (YES1 (human); compound 0.1 µM): 105% | residual activity (YES1 (human); compound 1.0 µM): 93% | residual activity (YES1 (human); compound 10.0 µM): 42%
Compound: O=C(O)c1ccc(-c2c[nH]c3ncc(-c4ccccc4)cc23)cc1C1CCCC1
